Assay results: patent US20260062422A1 (Halda Therapeutics OpCo, Inc., priority 2022, published 2026)

Columns and labels:
VCaP cells = experiment: Cellular growth inhibition assay for VCaP cells, CellTiter-Glo; type: cell-based, human; conditions: Homo sapiens, VCaP, 72 h, 72 hours treatment, CellTiter-Glo 2.0
Summary of the method: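 GI50 values come from four-parameter curve fits of luminescence data normalized to a zero baseline. Compound, in medium with 0.5% DMSO, was added one day after plating and left for 72 h before CellTiter-Glo 2.0 addition.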

[1] = test system: T-Rex 293 cell line SC3 cells having increased expression of androgen receptor protein due to exposure to doxycycline; experiment: Cellular growth inhibition, T-Rex 293 SC3 cells with doxycycline (androgen receptor induced), CellTiter-Glo; type: cell-based; conditions: 72 h, T-Rex 293 SC3 cells with 10 ng/mL doxycycline (increased androgen receptor expression)
Summary of the method: (§1)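 Luminescence read-out (CellTiter-Glo 2.0) after 72 h compound exposure; GI50 by four-parameter nonlinear regression, baseline set at zero luminescence. SC3 cells, a doxycycline-inducible wild-type AR clone of T-Rex 293, were cultured ±10 ng/mL doxycycline in charcoal-dextran FBS medium.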

[2] = test system: T-Rex 293 cell line SC3 cells lacking increased expression of androgen receptor protein; experiment: Cellular growth inhibition, T-Rex 293 SC3 cells without doxycycline, CellTiter-Glo; type: cell-based; conditions: 72 h, T-Rex 293 SC3 cells not exposed to doxycycline, CellTiter-Glo 2.0
Summary of the method: as §1

T47D cells = experiment: Cellular growth inhibition assay for T47D cells, CellTiter-Glo; type: cell-based, human; conditions: Homo sapiens, T47D, 72 h, 72 hours treatment, CellTiter-Glo 2.0 cell viability
Summary of the method: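 Luminescence from CellTiter-Glo 2.0 after 72 h of compound exposure gives the viability signal. Cells grew in insulin-supplemented (0.2 units/mL) DMEM with 10% FBS and were treated one day after seeding at 0.5% DMSO. GI50 values come from four-parameter nonlinear regression.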

Cc1sc2c(c1C)C(c1ccc(C#C[C@H]3C[C@]4(CCCN(c5ncc(C(=O)N[C@H]6C(C)(C)[C@H](Oc7ccc(C#N)c(Cl)c7)C6(C)C)cn5)C4)C3)cc1)=N[C@@H](Cc1ncco1)c1nnc(C)n1-2 [Compound I-269]
GI50 (VCaP cells): 1500 to 3000 nM | GI50 [1]: < 500 nM | GI50 [2]: > 3000 nM | GI50 (T47D cells): 500 to 1500 nM

Cc1sc2c(c1C)C(c1ccc(C[C@H]3C[C@@H]([C@H]4CCCN(c5ncc(C(=O)N[C@H]6C(C)(C)[C@H](Oc7ccc(C#N)c(Cl)c7)C6(C)C)cn5)C4)C3)cc1)=N[C@@H](Cc1ncco1)c1nnc(C)n1-2 [Compound I-160]
GI50 (VCaP cells): > 3000 nM | GI50 [1]: > 3000 nM | GI50 [2]: > 3000 nM | GI50 (T47D cells): 1500 to 3000 nM

Cc1sc2c(c1C)C(c1ccc(O[C@H]3C[C@]4(CCCN(c5ncc(C(=O)N[C@H]6C(C)(C)[C@H](Oc7ccc(C#N)c(Cl)c7)C6(C)C)cn5)C4)C3)cc1)=N[C@@H](Cc1ncco1)c1nnc(C)n1-2 [Compound I-194]
GI50 (VCaP cells): < 500 nM | GI50 [1]: < 500 nM | GI50 [2]: < 500 nM | GI50 (T47D cells): 500 to 1500 nM

Cc1sc2c(c1C)C(c1ccc(C(C)(C)CN3CC4(CCCN(c5ncc(C(=O)NC6C(C)(C)C(Oc7ccc(C#N)c(Cl)c7)C6(C)C)cn5)C4)C3)cc1)=N[C@@H](Cc1ncco1)c1nnc(C)n1-2 (stereo partly drawn) [Compound I-479]
GI50 (VCaP cells): < 500 nM | GI50 [1]: < 500 nM | GI50 [2]: 500 to 1500 nM | GI50 (T47D cells): 500 to 1500 nM

Cc1sc2c(c1C)C(c1ccc(C(=O)N3CCN(C(=O)c4ncc(C(=O)N[C@H]5C(C)(C)[C@H](Oc6ccc(C#N)c(Cl)c6)C5(C)C)cn4)CC3)cc1)=N[C@@H](Cc1ncco1)c1nnc(C)n1-2 [Compound I-285]
GI50 (VCaP cells): > 3000 nM | GI50 [1]: > 3000 nM | GI50 [2]: > 3000 nM | GI50 (T47D cells): > 3000 nM

Cc1sc2c(c1C)C(c1ccc(CN3CC(=O)N4CC(c5ncc(C(=O)N[C@H]6C(C)(C)[C@H](Oc7ccc(C#N)c(Cl)c7)C6(C)C)cn5)C[C@H]4C3=O)cc1)=N[C@@H](Cc1ncco1)c1nnc(C)n1-2 (stereo partly drawn) [Compound I-385]
GI50 (VCaP cells): 1500 to 3000 nM | GI50 [1]: > 3000 nM | GI50 [2]: > 3000 nM | GI50 (T47D cells): > 3000 nM

Cc1sc2c(c1C)C(c1ccc(N3CCC[C@H](C(=O)N4CCC[C@H](c5ncc(C(=O)N[C@H]6C(C)(C)[C@H](Oc7ccc(C#N)c(Cl)c7)C6(C)C)cn5)C4)C3)cc1)=N[C@H](Cc1ncco1)c1nnc(C)n1-2 [Compound I-338]
GI50 (VCaP cells): > 3000 nM | GI50 [1]: > 3000 nM | GI50 [2]: > 3000 nM | GI50 (T47D cells): > 3000 nM

Cc1sc2c(c1C)C(c1ccc(CC3CC4(C3)CN(c3ncc(C(=O)N[C@H]5C(C)(C)[C@H](Oc6ccc(C#N)c(Cl)c6)C5(C)C)cn3)C4)cc1)=N[C@@H](Cc1ncco1)c1nnc(C)n1-2 [Compound I-151]
GI50 (VCaP cells): < 500 nM | GI50 [1]: < 500 nM | GI50 [2]: < 500 nM | GI50 (T47D cells): < 500 nM

Cc1sc2c(c1C)C(c1ccc(C[C@H]3CCCN(c4ncc(C(=O)N[C@H]5C(C)(C)[C@H](Oc6ccc(C#N)c(Cl)c6)C5(C)C)cn4)C3)cc1)=N[C@@H](Cc1ncco1)c1nnc(C)n1-2 [Compound I-297]
GI50 (VCaP cells): < 500 nM | GI50 [1]: < 500 nM | GI50 [2]: 500 to 1500 nM | GI50 (T47D cells): < 500 nM

Cc1sc2c(c1C)C(c1ccc(CC[C@H]3C[C@@]4(CCCN(c5ncc(C(=O)N[C@H]6C(C)(C)[C@H](Oc7ccc(C#N)c(Cl)c7)C6(C)C)cn5)C4)C3)cc1)=N[C@@H](Cc1ncco1)c1nnc(C)n1-2 [Compound I-240]
GI50 (VCaP cells): > 3000 nM | GI50 [1]: > 3000 nM | GI50 [2]: > 3000 nM | GI50 (T47D cells): > 3000 nM

Cc1sc2c(c1C)C(c1ccc(C3CN(C4CCN(c5ncc(C(=O)N[C@H]6C(C)(C)[C@H](Oc7ccc(C#N)c(Cl)c7)C6(C)C)cn5)CC4)C3)cc1)=N[C@@H](Cc1ncco1)c1nnc(C)n1-2 [Compound I-247]
GI50 (VCaP cells): < 500 nM | GI50 [1]: < 500 nM | GI50 [2]: < 500 nM | GI50 (T47D cells): < 500 nM

Cc1sc2c(c1C)C(c1ccc(CCCOC3CCN(c4ncc(C(=O)N[C@H]5C(C)(C)[C@H](Oc6ccc(C#N)c(Cl)c6)C5(C)C)cn4)CC3)cc1)=N[C@@H](Cc1cnccn1)c1nnc(C)n1-2 [Compound I-277]
GI50 (VCaP cells): > 3000 nM | GI50 [1]: < 500 nM | GI50 [2]: > 3000 nM | GI50 (T47D cells): > 3000 nM

Cc1sc2c(c1C)C(c1ccc(C(C)(C)N3CC4(CCCN(c5ncc(C(=O)N[C@H]6C(C)(C)[C@H](Oc7ccc(C#N)c(Cl)c7)C6(C)C)cn5)C4)C3)cc1)=N[C@@H](C)c1nnc(C)n1-2 [Compound I-464]
GI50 (VCaP cells): < 500 nM | GI50 [1]: < 500 nM | GI50 [2]: > 3000 nM | GI50 (T47D cells): > 3000 nM

Cc1sc2c(c1C)C(c1ccc(Cl)cc1)=N[C@@H](CC(=O)NCCN1CCN(CC3CCN(c4ncc(C(=O)N[C@H]5C(C)(C)[C@H](Oc6ccc(C#N)c(Cl)c6)C5(C)C)cn4)CC3)CC1)c1nnc(C)n1-2 [Compound I-35, N-((1r,3r)-3-(3-chloro-4-cyanophenoxy)-2,2,4,4-tetramethylcyclobutyl)-2-(4-((4-(2-(2-((S)-4-(4-chlorophenyl)-2,3,9-trimethyl-6H-thieno[3,2-f][1,2,4]triazolo[4,3-a][1,4]diazepin-6-yl)acetamido)ethyl)piperazin-1-yl)methyl)piperidin-1-yl)pyrimidine-5-carboxamide]
GI50 (VCaP cells): 500 to 1500 nM | GI50 [1]: 500 to 1500 nM | GI50 [2]: 500 to 1500 nM | GI50 (T47D cells): < 500 nM

Cc1sc2c(c1C)C(c1ccc(CN3CC[C@]4(CCCN(c5ncc(C(=O)N[C@H]6C(C)(C)[C@H](Oc7ccc(C#N)c(Cl)c7)C6(C)C)cn5)C4)C3)cc1)=N[C@@H](Cc1ncco1)c1nnc(C)n1-2 [Compound I-145]
GI50 (VCaP cells): < 500 nM | GI50 [1]: < 500 nM | GI50 [2]: < 500 nM | GI50 (T47D cells): < 500 nM

CC[C@@H]1N=C(c2ccc(N3CC(CC4CCN(c5cnc(C(=O)N[C@H]6C(C)(C)[C@H](Oc7ccc(C#N)c(Cl)c7)C6(C)C)cn5)CC4)C3)cc2)c2c(sc(C)c2C)-n2c(C)nnc21 [Compound I-594]
GI50 (VCaP cells): > 3000 nM | GI50 [1]: > 3000 nM | GI50 [2]: > 3000 nM | GI50 (T47D cells): 1500 to 3000 nM

Cc1sc2c(c1C)C(c1ccc(CC[C@H]3CC[C@]4(CCCN(c5ncc(C(=O)N[C@H]6C(C)(C)[C@H](Oc7ccc(C#N)c(Cl)c7)C6(C)C)cn5)C4)C3)cc1)=N[C@H](Cc1ncco1)c1nnc(C)n1-2 [Compound I-251]
GI50 (VCaP cells): < 500 nM | GI50 [1]: < 500 nM | GI50 [2]: > 3000 nM | GI50 (T47D cells): < 500 nM

Cc1sc2c(c1C)C(c1ccc(CCCC3CC4(C3)CN(c3ncc(C(=O)N[C@H]5C(C)(C)[C@H](Oc6ccc(C#N)c(Cl)c6)C5(C)C)cn3)C4)cc1)=N[C@@H](C)c1nnc(C)n1-2 [Compound I-365]
GI50 (VCaP cells): < 500 nM | GI50 [1]: < 500 nM | GI50 [2]: > 3000 nM | GI50 (T47D cells): < 500 nM

Cc1sc2c(c1C)C(c1ccc(CCN3CCC4(CCCN(c5ncc(C(=O)N[C@H]6C(C)(C)[C@H](Oc7ccc(C#N)c(Cl)c7)C6(C)C)cn5)C4)C3)cc1)=N[C@@H](Cc1ncco1)c1nnc(C)n1-2 (stereo partly drawn) [Compound I-147]
GI50 (VCaP cells): < 500 nM | GI50 [1]: < 500 nM | GI50 [2]: 500 to 1500 nM | GI50 (T47D cells): < 500 nM

Cc1sc2c(c1C)C(c1ccc(CN3CC4(CCCN(c5ncc(C(=O)N[C@H]6C(C)(C)[C@H](Oc7ccc(C#N)c(Cl)c7)C6(C)C)cn5)C4)C3)cc1)=N[C@@H](Cc1ncco1)c1nnc(C)n1-2 [Compound I-148]
GI50 (VCaP cells): < 500 nM | GI50 [1]: < 500 nM | GI50 [2]: < 500 nM | GI50 (T47D cells): < 500 nM

Cc1sc2c(c1C)C(c1ccc([C@H]3CCN(C(=O)[C@@H]4CCCN(c5ncc(C(=O)N[C@H]6C(C)(C)[C@H](Oc7ccc(C#N)c(Cl)c7)C6(C)C)cn5)C4)C3)cc1)=N[C@@H](Cc1ncco1)c1nnc(C)n1-2 [Compound I-384]
GI50 (VCaP cells): < 500 nM | GI50 [1]: < 500 nM | GI50 [2]: < 500 nM | GI50 (T47D cells): < 500 nM
